Assay results from patent publication US7608716B2, “Pyrazolonaphthyridine derivative” (Aska Pharmaceutical Co., Ltd., priority 2002, dated 2009).

System: T1, PDE IV isozymes separated from U937 culture cells
T1 construct: PDE IV isozymes as used herein were separated from U937 culture cells by using an anion exchange chromatography
Test: PDE IV inhibition ([3H]-cAMP hydrolysis)
Type: biochemical
Details: cAMP 1 μM substrate, 30° C., 20 minutes
Procedure: PDE IV isozymes as used herein were separated from U937 culture cells by using an anion exchange chromatography. Type IV PDE isozyme was admixed with ethylene glycol (EG) to adjust the final EG concentration to 30%, then stored at −20° C. and diluted when used. The enzymatic activity for PDE IV was measured using cAMP as a substrate.
Each test compound was dissolved in DMSO to adjust the final concentration to 1% (2.5 μl/tube).
Incubation Buffer Solution (pH7.5):
• Tris-HCl (50 mM), magnesium chloride (6 mM), dithiothreitol (2.5 mM), 5-nucleotidase (4 μg/ml), bovine serum albumin (0.23 mg/ml), and cAMP (1 μM).
A mixture of the aforementioned test compound solution and the buffer solution was incubated at 30° C. for 20 minutes. The reaction was quenched by admixing with 1 ml of anion exchange resin slurry (AG1-X8, 200-400 meshes, chloride form; Bio-Rad) to absorb unreacted substrates. After the reaction stopped, the mixture was centrifuged at 800×g for 10 minutes, and the resulting supernatant was collected with vials in 250 μl aliquots. To each vial was added 5 ml of ACS-II (scintillator, Amersham). The radioactivity was measured with a liquid scintillator counter for [^3H]-adenosine and set as the PDE IV activity.

| SMILES | IC50 |
| --- | --- |
| O=c1c2c(Cc3ccccc3[N+](=O)[O-])n[nH]c2c2cccnc2n1-c1ccccc1 [Example No. 26, 3-(2-nitrobenzyl)-5-phenyl-1H-pyrazolo[4,3-c][1,8]naphthyridin-4 (5H)-one] | 0.02 µM |
| COc1ccc(OC)c(Cc2n[nH]c3c2c(=O)n(-c2ccccc2)c2ncccc32)c1 [Example No. 27, 3-(2,5-dimethoxybenzyl)-5-phenyl-1H-pyrazolo[4,3-c][1,8]naphthyridin-4 (5H)-one] | 0.021 µM |
| O=c1c2c(Cc3ccccc3)n[nH]c2c2cccnc2n1-c1cccc([N+](=O)[O-])c1 [Example No. 56, 3-benzyl-5-(3-nitrophenyl)-1H-pyrazolo[4,3-c][1,8]-naphthyridin-4 (5H)-one] | 0.023 µM |

System: not given
Test: not given
Details: not given

| SMILES | melting point |
| --- | --- |
| COc1ccc(OC)c(Cc2n[nH]c3c2c(=O)n(-c2ccccc2)c2ncccc32)c1 (hydrate or solvate) [Example No. 27, 3-(2,5-dimethoxybenzyl)-5-phenyl-1H-pyrazolo[4,3-c][1,8]naphthyridin-4 (5H)-one] | 248 to 250 °C |
| COc1ccc(Cc2n[nH]c3c2c(=O)n(-c2ccccc2)c2ncccc32)cc1OC (hydrate or solvate) [Example 28, 3-(3,4-dimethoxybenzyl)-5-phenyl-1H-pyrazolo[4,3-c][1,8]naphthyridin-4 (5H)-one] | 230 to 232 °C |
| CS(=O)(=O)Nc1ccc(Cc2n[nH]c3c2c(=O)n(-c2ccccc2)c2ncccc32)cc1 [Example 49, 3-(4-methanesulfonylaminobenzyl)-5-phenyl-1H-pyrazolo[4,3-c][1,8]naphthyridin-4 (5H)-one] | 306 to 307 °C |
| N#Cc1ccccc1CCc1n[nH]c2c1c(=O)n(-c1ccccc1)c1ncccc21 (hydrate or solvate) [Example 17, 3-[2-(2-cyanophenyl)ethyl]-5-phenyl-1H-pyrazolo[4,3-c][1,8]naphthyridin-4 (5H)-one] | 315.5 to 316.5 °C |
| O=c1c2c(Cc3cccs3)n[nH]c2c2cccnc2n1-c1ccccc1 (hydrate or solvate) [Example No. 23, 3-(2-thienylmethyl)-5-phenyl-1H-pyrazolo[4,3-c][1,8]naphthyridin-4 (5H)-one] | 282 to 284 °C |
| COc1ccc(Cc2n[nH]c3c2c(=O)n(-c2ccccc2)c2ncccc32)c(OC)c1 (hydrate or solvate) [Example No. 30, 3-(2,4-dimethoxybenzyl)-5-phenyl-1H-pyrazolo[4,3-c][1,8]naphthyridin-4 (5H)-one] | 266 to 267 °C |
| Nc1ccc(CCc2n[nH]c3c2c(=O)n(-c2ccccc2)c2ncccc32)cc1 (hydrate or solvate) [Example No. 13, 3-[2-(4-aminophenyl)ethyl]-5-phenyl-1H-pyrazolo[4,3-c][1,8]naphthyridin-4 (5H)-one] | > 310 °C |
| O=c1c2c(Cc3cccc([N+](=O)[O-])c3)n[nH]c2c2cccnc2n1-c1ccccc1 (hydrate or solvate) [Example 25, 3-(3-nitrobenzyl)-5-phenyl-1H-pyrazolo[4,3-c][1,8]naphthyridin-4 (5H)-one] | > 320 °C |
| COc1ccccc1Cc1n[nH]c2c1c(=O)n(-c1ccccc1)c1ncccc21 (hydrate or solvate) [Example No. 22, 3-(2-methoxybenzyl)-5-phenyl-1H-pyrazolo[4,3-c][1,8]naphthyridin-4 (5H)-one] | 276 to 277 °C |
| COc1ccc(Cc2n[nH]c3c2c(=O)n(-c2ccccc2)c2ncccc32)cc1 (hydrate or solvate) [Example No. 21, 3-(4-methoxybenzyl)-5-phenyl-1H-pyrazolo[4,3-c][1,8]naphthyridin-4 (5H)-one] | 300 to 302 °C |
| O=c1c2c(CCc3ccccc3[N+](=O)[O-])n[nH]c2c2cccnc2n1-c1ccccc1 (hydrate or solvate) [Example 16, 3-[2-(2-nitrophenyl)ethyl]-5-phenyl-1H-pyrazolo[4,3-c][1,8]naphthyridin-4 (5H)-one] | 333 to 335 °C |
| CS(=O)(=O)c1ccc(Cc2n[nH]c3c2c(=O)n(-c2ccccc2)c2ncccc32)cc1 (hydrate or solvate) [Example 34, 3-(4-methylsulfonylbenzyl)-5-phenyl-1H-pyrazolo[4,3-c][1,8]naphthyridin-4 (5H)-one] | 311.5 to 312.5 °C |
| O=c1c2c(CCc3ccncc3)n[nH]c2c2cccnc2n1-c1ccccc1 [Example 1, 5-phenyl-3-[2-(pyridin-4-yl)ethyl]-1H-pyrazolo[4,3-c][1,8]-naphthyridin-4 (5H)-one] | 267 to 269 °C |
| O=c1c2c(CCc3cccc([N+](=O)[O-])c3)n[nH]c2c2cccnc2n1-c1ccccc1 (hydrate or solvate) [Example 15, 3-[2-(3-nitrophenyl)ethyl]-5-phenyl-1H-pyrazolo[4,3-c][1,8]naphthyridin-4 (5H)-one] | 245 to 247 °C |
| NC(=O)Nc1ccccc1CCc1n[nH]c2c1c(=O)n(-c1ccccc1)c1ncccc21 [Example 50, 5-phenyl-3-[2-(2-ureidophenyl)ethyl]-1H-pyrazolo[4,3-c][1,8]naphthyridin-4 (5H)-one] | 300 to 305 °C |
| O=C(O)c1ccccc1CCc1n[nH]c2c1c(=O)n(-c1ccccc1)c1ncccc21 (hydrate or solvate) [Example 37, 3-[2-(2-carboxyphenyl)ethyl]-5-phenyl-1H-pyrazolo[4,3-c][1,8]naphthyridin-4 (5H)-one] | 302 to 308 °C |
| CS(=O)(=O)Nc1ccc(CCc2n[nH]c3c2c(=O)n(-c2ccccc2)c2ncccc32)cc1 [Example 48, 3-[2-(4-methanesulfonylaminophenyl)ethyl]-5-phenyl-1H-pyrazolo[4,3-c][1,8]naphthyridin-4 (5H)-one] | 284 to 285 °C |
| COc1cccc(Cc2n[nH]c3c2c(=O)n(-c2ccccc2)c2ncccc32)c1 (hydrate or solvate) [Example 20, 3-(3-methoxybenzyl)-5-phenyl-1H-pyrazolo[4,3-c][1,8]naphthyridin-4 (5H)-one] | 234 to 236 °C |
| O=c1c2c(Cc3ccccc3O)n[nH]c2c2cccnc2n1-c1ccccc1 [Example 42, 3-(2-hydroxybenzyl)-5-phenyl-1H-pyrazolo[4,3-c][1,8]-naphthyridin-4 (5H)-one] | 278 to 280 °C |
| N#Cc1ccc(Cc2n[nH]c3c2c(=O)n(-c2ccccc2)c2ncccc32)cc1 (hydrate or solvate) [Example 31, 3-(4-cyanobenzyl)-5-phenyl-1H-pyrazolo[4,3-c][1,8]naphthyridin-4 (5H)-one] | 316 to 318 °C (dec.) |
| O=c1c2c(Cc3cccnc3)n[nH]c2c2cccnc2n1-c1ccccc1 [Example 4, 5-phenyl-3-(pyridin-3-yl)methyl-1H-pyrazolo[4,3-c][1,8]-naphthyridin-4 (5H)-one] | 306 °C (dec.) |
| CCOC(=O)Cc1ccc(Cc2n[nH]c3c2c(=O)n(-c2ccccc2)c2ncccc32)cc1 (hydrate or solvate) [Example No. 32, 3-(4-ethoxycarbonylmethylbenzyl)-5-phenyl-1H-pyrazolo[4,3-c][1,8]naphthyridin-4 (5H)-one] | 263 to 264 °C |
| Nc1cccc(-n2c(=O)c3c(CCc4ccncc4)n[nH]c3c3cccnc32)c1 [Example 8, 5-(3-aminophenyl)-3-[2-(pyridin-4-yl)ethyl]-1H-pyrazolo[4,3-c][1,8]naphthyridin-4 (5H)-one] | 261 to 263 °C |
| O=C(O)c1cccc(CCc2n[nH]c3c2c(=O)n(-c2ccccc2)c2ncccc32)c1 [Example 38, 3-[2-(3-carboxyphenyl)ethyl]-5-phenyl-1H-pyrazolo[4,3-c][1,8]naphthyridin-4 (5H)-one] | 159 to 161 °C |
| N#Cc1cccc(CCc2n[nH]c3c2c(=O)n(-c2ccccc2)c2ncccc32)c1 (hydrate or solvate) [Example 18, 3-[2-(3-cyanophenyl)ethyl]-5-phenyl-1H-pyrazolo[4,3-c][1,8]naphthyridin-4 (5H)-one] | 219.5 to 224.5 °C |
| O=c1c2c(CCc3ccc([N+](=O)[O-])cc3)n[nH]c2c2cccnc2n1-c1ccccc1 (hydrate or solvate) [Example 11, 3-[2-(4-nitrophenyl)ethyl]-5-phenyl-1H-pyrazolo[4,3-c][1,8]naphthyridin-4 (5H)-one] | 260 to 262 °C |
| O=c1c2c(Cc3ccccc3[N+](=O)[O-])n[nH]c2c2cccnc2n1-c1ccccc1 (hydrate or solvate) [Example No. 26, 3-(2-nitrobenzyl)-5-phenyl-1H-pyrazolo[4,3-c][1,8]naphthyridin-4 (5H)-one] | 318 to 320 °C (dec.) |
| O=c1c2c(CCc3cccnc3)n[nH]c2c2cccnc2n1-c1ccccc1 [Example 3, 5-phenyl-3-[2-(pyridin-3-yl)ethyl]-1H-pyrazolo[4,3-c][1,8]-naphthyridin-4 (5H)-one] | 322 °C (dec.) |
| COc1cc(Cc2n[nH]c3c2c(=O)n(-c2ccccc2)c2ncccc32)cc(OC)c1 (hydrate or solvate) [Example 29, 3-(3,5-dimethoxybenzyl)-5-phenyl-1H-pyrazolo[4,3-c][1,8]naphthyridin-4 (5H)-one] | 258 to 259 °C |
| O=C(O)c1ccc(CCc2n[nH]c3c2c(=O)n(-c2ccccc2)c2ncccc32)cc1 (hydrate or solvate) [Example No. 14, 3-[2-(4-carboxyphenyl)ethyl]-5-phenyl-1H-pyrazolo[4,3-c][1,8]naphthyridin-4 (5H)-one] | 318 to 320 °C |
